Source: paper PMC11237035, “Glutathione determines chronic myeloid leukemia vulnerability to an inhibitor of CMPK and TMPK” (Communications Biology, 2024)
Values joined by “and” are separate entries in the source; they are usually repeats but may differ in a detail not shown here. Equal entries are not always repeated. Where two headings read alike, the source gives them in different places.

Key:
T315I-Bcr-Abl-32D cells [1] = assay: CCK-8 cell viability assay, T315I-Bcr-Abl-32D cells; format: cell-based, mouse; conditions: for viability (0 = 100): T315I-Bcr-Abl, single replicates
K562 cells = assay: CCK-8 cell viability assay, K562 cells; format: cell-based, human; conditions: for cell viability (Figure 7d): K562, relative to 0 = 100, per replicate
Description: After 3 days, cells were analyzed by viability assays.

untransformed 32D cells = assay: Western blot of tyrosine phosphorylation, untransformed 32D cells; format: cell-based, mouse; conditions: untransformed 32D cells, JMF4073 at indicated concentrations, Western blot
WT-Bcr-Abl-32D cells = assay: Western blot of tyrosine phosphorylation and Bcr-Abl downstream signaling, WT-Bcr-Abl-32D cells; format: cell-based, mouse; conditions: WT-Bcr-Abl-32D cells, JMF4073 at indicated concentrations, Western blot
Description: (§1) Supplementary Figure 1. Bcr-Abl-activated downstream signaling in WT- and
(§2) The comparison of Bcr-Abl downstream signaling (Akt, mTorC1, and Stat5) in WT- […]

T315I-Bcr-Abl-32D cells [2] = assay: Western blot of tyrosine phosphorylation and Bcr-Abl downstream signaling, T315I-Bcr-Abl-32D cells; format: cell-based, mouse; conditions: T315I-Bcr-Abl-32D cells, JMF4073 at indicated concentrations, Western blot
Description: as §1, §2

hTMPK = target: T1, hTMPK (Homo sapiens, UniProt P23919); assay: biochemical
T1 sequence (P23919 1-212): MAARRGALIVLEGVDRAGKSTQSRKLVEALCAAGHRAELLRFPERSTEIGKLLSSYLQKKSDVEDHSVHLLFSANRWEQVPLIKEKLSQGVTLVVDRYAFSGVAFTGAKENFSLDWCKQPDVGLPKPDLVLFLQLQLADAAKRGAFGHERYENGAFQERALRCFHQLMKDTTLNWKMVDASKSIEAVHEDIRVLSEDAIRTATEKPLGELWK
Description: Activity assay was measured using the spectrophotometric method by coupling ADP formation to NADH oxidation catalyzed by pyruvate kinase and lactate dehydrogenase as described previously[20]. Each reaction contained 0.4 μg TMPK or 0.3 μg CMPK was incubated at 25 °C followed by using Tecan Spark 10 microplate reader to detect the change in NADH measurement at 340 nm absorption according to the manufacturer’s instructions.

TCCS cells = assay: CCK-8 cell viability assay, TCCS cells; conditions: for cell viability (Figure 7d) / cell viability (Figure 7g): TCCS, per replicate; for cell viability (Figure 7d): relative to 0 = 100; for cell viability (Figure 7g): NT, NT 0 μM = 100
Description: (§3) Cells were seeded at the density of 1 × 10^3 cells/well in 96-well microplate. After 3 days, cell viability was determined using the CCK-8 cell viability. The viability was measured by using Tecan Spark 10 microplate reader at 450 nm according to the manufacturer’s instructions.

KOPM28 cells = assay: CCK-8 cell viability assay, KOPM28 cells; conditions: for cell viability (Figure 7g): NT, NT 0 μM = 100, per replicate
Description: as §3

[3] = system: WT-Bcr-Abl-32D cells in C3H/HeNCrNarl mice; assay: In vivo therapy of WT-Bcr-Abl-32D CML mice; conditions: WT-Bcr-Abl-32D mice
Description: Data are represented as means ± S.D., n = 3 biological replicates. e C3H/HeNCrNarl mice were intravenously injected with 5 × 10^5 cells of WT-Bcr-Abl-32D cell. […] Asterisks denote *p < 0.05, **p < 0.01, ***p < 0.001, or ****p < 0.0001 from unpaired two-tailed Student’s t-test or Log-rank (Mantel–Cox) test.
Female C3H/HeNCrNarl mice were used at 6–8 weeks of age (National Laboratory Animal Center, Taiwan).
Mouse CML induction and in vivo therapy
Female C3H/HeNCrNarl mice were used at 6-8 weeks of age (National
Laboratory Animal Center, Taiwan). WT-Bcr-Abl-32D-EGFP+ cells (5 × 105)
suspended in 200 μL of HBSS were injected into each mouse through the tail vein. After
were monitored for peripheral blood (PB) and counted by Taiwan Mouse Clinic-
National Phenotyping Center, National Research Program for Genomic Medicine
(NSC). For T315I-Bcr-Abl CML mice, T315I-Bcr-Abl-32D-EGFP+ cells (1×106)
suspended in 200 μL of HBSS were tail-vein-injected. After 7 days of transplantation,
(§4) For monitoring CML progress, mice blood was
(§5) collected in anticoagulation tubes by submandibular blood collection, followed by
(§6) lysing red blood cells with RBC lysis buffer (Invitrogen). After washing, the remaining
(§7) cells were suspended in 500 μL of HBSS and subjected to flow cytometry analysis
(FACScalibur, BD Bioscience) with CellQuest software. The number of EGFP+ cells

[4] = system: T315I-Bcr-Abl-32D cells in C3H/HeNCrNarl mice; conditions: for survival of leukemia mice: T315I-Bcr-Abl-32D mice, vs vehicle
Description: Asterisks denote *p < 0.05, **p < 0.01, ***p < 0.001, or ****p < 0.0001 from unpaired two-tailed Student’s t-test or Log-rank (Mantel–Cox) test.
T315I-Bcr-Abl-transformed and untransformed 32D cells were treated with UK-5099 (25 μM) for 16 h. […] Data are represented as means ± S.D., n > 3 biological replicates.
The animal studies were approved by the biosafety committee at National Taiwan University and conformed to the national guidelines and regulations (IACUC # 20201063). Female C3H/HeNCrNarl mice were used at 6–8 weeks of age (National Laboratory Animal Center, Taiwan).
Mouse CML induction and in vivo therapy
The animal studies were approved by the biosafety committee at National Taiwan
University and conformed to the national guidelines and regulations (IACUC #
20201063). Female C3H/HeNCrNarl mice were used at 6-8 weeks of age (National
Laboratory Animal Center, Taiwan).
suspended in 200 μL of HBSS were injected into each mouse through the tail vein.
suspended in 200 μL of HBSS were tail-vein-injected.
as §4, §5, §6, §7
(FACScalibur, BD Bioscience) with CellQuest software.

CC(C)(C)OC(=O)N1CCN(C(=O)Cn2sc3ccc(F)cc3c2=O)CC1 [JMF4073, Tert-butyl 4-(2-(5-fluoro-3-oxobenzo[d]isothiazol-2(3H)-yl)acetyl) piperazine-1-carboxylate]
viability (0 = 100) (T315I-Bcr-Abl-32D cells [1]; JMF4073 2 mM (so in the source)): 12 and 38 and 34.0126
viability (0 = 100) (T315I-Bcr-Abl-32D cells [1]; JMF4073 5 mM (so in the source)): 19 and 10 and 9.067
JMF4073 sensitivity with BSO co-treatment (T315I-Bcr-Abl-32D cells [1]; T315I-Bcr-Abl-32D cells, BSO 12.5 μM): markedly increased
JMF4073 sensitivity with UK-5099 treatment (T315I-Bcr-Abl-32D cells [1]; T315I-Bcr-Abl-32D cells, UK-5099 25 μM): sensitized
cell viability (Figure 7d) (K562 cells; JMF4073 0.625 (mM as printed)): 114.189 and 84.0418 and 97.6144
cell viability (Figure 7d) (K562 cells; JMF4073 1.25 (mM as printed)): 86.4343 and 75.2342 and 85.0231
cell viability (Figure 7d) (K562 cells; JMF4073 2.5 (mM as printed)): 42.6408 and 39.7616 and 38.8404
cell viability (Figure 7d) (K562 cells; JMF4073 5 (mM as printed)): 4.788 and 0.7438 and 0.1275
JMF4073 sensitivity (K562 cells; K562 cells, 3 days, compared among K562, TCCS, KOPM28): higher
levels of overall tyrosine phosphorylation (untransformed 32D cells): unaffected
levels of overall tyrosine phosphorylation (WT-Bcr-Abl-32D cells): unaffected
levels of overall tyrosine phosphorylation (T315I-Bcr-Abl-32D cells [2]): unaffected
IC50 (hTMPK): 160 nM and ~170 nM
sensitivity to combinatory treatment of JMF4073 and UK-5099 (TCCS cells; TCCS cells): insensitive
JMF4073 sensitivity (TCCS cells; TCCS cells, 3 days, compared among K562, TCCS, KOPM28): less
JMF4073 sensitivity after erastin pretreatment (TCCS cells; TCCS cells, erastin 0.5 μM, 16 h): markedly increased
cell viability (Figure 7d) (TCCS cells; JMF4073 0.625): 120.422 and 103.29 and 164.136
cell viability (Figure 7d) (TCCS cells; JMF4073 1.25): 102.037 and 133.359
cell viability (Figure 7d) (TCCS cells; JMF4073 2.5): 39.3238 and 117.065
cell viability (Figure 7d) (TCCS cells; JMF4073 5): 61.7646 and -1.852 and 14.6452
cell viability (Figure 7g) (TCCS cells; JMF 4073 0.625 μM): 120.422 and 103.29 and 164.136
cell viability (Figure 7g) (TCCS cells; JMF 4073 1.25 μM): 102.037 and 133.359
cell viability (Figure 7g) (TCCS cells; JMF 4073 2.5 μM): 39.3238 and 117.065
cell viability (Figure 7g) (TCCS cells; JMF 4073 5 μM): 61.7646 and -1.852 and 14.6452
cell viability (Figure 7g) (KOPM28 cells; KOPM28, JMF 4073 1.25 μM): 106.704 and 151.464
cell viability (Figure 7g) (KOPM28 cells; KOPM28, JMF 4073 2.5 μM): 112.966 and 158.237
cell viability (Figure 7g) (KOPM28 cells; KOPM28, JMF 4073 5 μM): 142.547 and 122.577 and 85.9406
cell viability (Figure 7g) (KOPM28 cells; KOPM28, JMF 4073 10 μM): 0 and -1.445 and 2.083
sensitivity to combinatory treatment of JMF4073 and UK-5099 (KOPM28 cells; KOPM28 cells): insensitive
JMF4073 sensitivity (KOPM28 cells; KOPM28 cells, 3 days, compared among K562, TCCS, KOPM28): insensitive
JMF4073 sensitivity after erastin pretreatment (KOPM28 cells; KOPM28 cells, erastin 0.5 μM, 16 h): markedly increased
WBC (White blood cell/Leukocyte count) ([3]; IP JMF4073, Day 26, submandibular blood, single mice): brought down
survival of leukemia mice ([3]; JMF4073 5 mg/kg i.p. daily for 14 days, vs vehicle): prolonged the survival
Spleen weight ([4]; Figure 6h, individual mice N1-N3): 0.26 g and 0.29 g and 0.58 g
spleen size ([4]; JMF4073 5 mg/kg + UK-5099 10 mg/kg i.p.): marked decreases
population of T315I-Bcr-Abl-32D/EGFP+ cells in blood ([4]; JMF4073 5 mg/kg + UK-5099 10 mg/kg i.p., flow cytometry, day 30 after transplantation): marked decreases
survival of leukemia mice ([4]; JMF4073 5 mg/kg + UK-5099 10 mg/kg i.p. daily for 14 days): prolonged the survival
survival of leukemia mice ([4]; JMF4073 5 mg/kg i.p. daily for 14 days): not significantly prolonged
